Where two headings read alike, the source gives them in different places.
Experiments:
[1] = molecular target: T1, OccJ WT (Agrobacterium tumefaciens, UniProt P0A4F8); assay: biochemical; assay type: binding
T1 construct: The mature PBP OccJ (256 aa without the signal peptide) expression plasmid was obtained by cloning the occJ gene lacking the first twenty residues; hexahistidine (C); made in house; host or cells: E. coli BL21
Experimental: (§1) Binding of ligands to OccJ, NocT, LAO and protein mutants was monitored by autofluorescence by exciting the protein at a wavelength of 295 nm and monitoring the quenching of fluorescence emission of tryptophans at 335 nm. All experiments were performed at 20 °C in 96 wells plates (1/2 Area Plate-96F, Perkin Elmer) using Tecan Infinite M1000 reader (Tecan), in 50 mM Tris-HCl pH 8.0, 150 mM NaCl buffer with a fixed amount of proteins (1 µM) and increasing concentrations of ligand. […] The data were analysed using Origin® 7 software and fitted to the equation f = ΔFluorescencemax * abs(x)/(K D + abs(x)).

[2] = molecular target: T1, OccJ WT; assay: OccJ WT ligand binding, isothermal titration microcalorimetry; conditions: ITC, 20 °C
Experimental: (§2) Isothermal titration microcalorimetry experiments were performed with an ITC200 isothermal titration calorimeter from MicroCal (GE Healthcare). The experiments were carried out at 20 °C. Protein concentration in the microcalorimeter cell (0.2 mL) varied from 20 to 150 µM. Nineteen injections of 2 µL of ligand solution (amino acids, opines and octopine derivatives) at concentration ranging from 240 µM to 1.5 mM were performed at intervals of 180 s while stirring at 500 rpm. The experimental data were fitted to theoretical titration curves with software supplied by MicroCal (ORIGIN®). This software uses the relationship between the heat generated by each injection and ΔH (enthalpy change in kcal/mol), Ka (the association binding constant in M^−1), n (the number of binding sites), total protein concentration and free and total ligand concentrations.

[3] = molecular target: T2, NocT WT (Agrobacterium fabrum, UniProt P35120); assay type: binding, Agrobacterium tumefaciens; conditions: fluorescence titration; 20 °C; pH 8.0; octopine family members and analogues; read-out: Kd (F)
T2 construct: Cloning of mature OccJ, NocT-G97S, OccJ-S91G, OccJ-N202D, LAO and LAO-Q122A; made in house
Experimental: as §1

[4] = molecular target: LAO; set-up: method as in PMID 1400387; conditions: ref [20]; cited from earlier work
[5] = molecular target: T3, OccJ S91G (Agrobacterium tumefaciens, UniProt P0A4F8, S91G); assay: OccJ S91G ligand binding, fluorescence titration; conditions: intrinsic protein fluorescence titration; 20 °C; pH 8.0
T3 construct: The mature LAO expression plasmid, LAO-Q122A, OccJ-S91G and OccJ-N202D were chemically synthesized; pET-28a); host or cells: E. coli BL21
Experimental: as §1

[6] = molecular target: T2, NocT WT; conditions: F/ITC; amino acids; ref [6]; cited from earlier work
[7] = molecular target: T2, NocT WT; assay type: binding, Agrobacterium tumefaciens; conditions: ITC, 20 °C
Experimental: as §2

[8] = intrinsic protein fluorescence titration, 20 °C, 50 mM Tris-HCl pH 8.0, 150 mM NaCl, 1 µM protein
[9] = fluorescence titration, read-out: apparent dissociation constant K D
[10] = intrinsic protein fluorescence titration, 20 °C, 50 mM Tris-HCl pH 8.0, 150 mM NaCl, 1 µM protein, read-out: K D (F)

T1 sequence (P0A4F8 21-276): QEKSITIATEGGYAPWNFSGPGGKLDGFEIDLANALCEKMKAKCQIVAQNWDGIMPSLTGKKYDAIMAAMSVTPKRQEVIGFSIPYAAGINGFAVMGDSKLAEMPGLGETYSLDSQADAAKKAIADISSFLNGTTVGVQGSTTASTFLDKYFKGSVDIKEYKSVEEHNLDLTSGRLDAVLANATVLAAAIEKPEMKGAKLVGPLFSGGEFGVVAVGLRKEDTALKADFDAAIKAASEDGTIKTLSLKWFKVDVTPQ
T2 sequence (P35120 26-283): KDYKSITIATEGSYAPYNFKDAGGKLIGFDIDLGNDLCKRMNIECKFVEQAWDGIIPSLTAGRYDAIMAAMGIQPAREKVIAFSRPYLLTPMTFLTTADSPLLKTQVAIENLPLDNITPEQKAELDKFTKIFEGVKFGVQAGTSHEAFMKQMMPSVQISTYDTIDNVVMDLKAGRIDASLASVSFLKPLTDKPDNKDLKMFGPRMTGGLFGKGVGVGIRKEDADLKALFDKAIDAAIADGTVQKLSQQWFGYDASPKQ
T3 sequence (P0A4F8 21-276 S91G): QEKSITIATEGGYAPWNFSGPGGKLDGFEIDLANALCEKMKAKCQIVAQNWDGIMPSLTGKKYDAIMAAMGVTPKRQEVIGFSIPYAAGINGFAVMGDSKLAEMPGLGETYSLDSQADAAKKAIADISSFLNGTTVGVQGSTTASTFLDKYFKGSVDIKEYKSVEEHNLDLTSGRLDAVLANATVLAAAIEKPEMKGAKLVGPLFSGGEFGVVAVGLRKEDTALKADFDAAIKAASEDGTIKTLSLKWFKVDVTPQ

In the case of N[C@@H](Cc1c[nH]cn1)C(=O)O [histidine], the “K D (F)” value [1, 8] is reported as “No fluorescence intensity change was detected”.

For C[C@@H](N[C@@H](CCCCN)C(=O)O)C(=O)O [lysopine], the “Enthalpy (ΔH)” value [2] was -4832 cal/mol, the “Entropic contribution (-TΔS)” value [2] was -4455 cal/mol and the “Entropy (ΔS)” value [2] was 15.2 cal/mol/deg. The “Free enthalpy (ΔG)” value [2] was -9287 cal/mol, the Kd [2] was 0.11 ± 0.02 µM and the Kd [3] was 11.2 ± 3.5 µM. It also gave a Kd [1, 9] of 140 ± 10 nM and a Kd [1, 10] of 140 ± 10 nM.

With NCCCC[C@H](N)C(=O)O [L-lysine] the “Enthalpy (ΔH)” value [2] was -4920 cal/mol, the “Entropic contribution (-TΔS)” value [2] was -645 cal/mol and the “Entropy (ΔS)” value [2] was 2.20 cal/mol/deg. The “Free enthalpy (ΔG)” value [2] was -5565 cal/mol, the Kd [2] was 71 µM and the previous reported affinity [4] was “nanomolar range”. For the same compound, the “K D (F)” value [5] was “can no longer bind”, the “K D, amino acids” value [6] was “does not interact” and the Kd [1] was 7500 ± 2100 nM.

In the case of NCCC[C@H](N)C(=O)O [ornithine], the “Enthalpy (ΔH)” value [2] is reported as -1102 cal/mol, the “Entropic contribution (-TΔS)” value [2] is reported as -4778 cal/mol and the “Entropy (ΔS)” value [2] is reported as 16.3 cal/mol/deg. For the same compound, the “Free enthalpy (ΔG)” value [2] was -5880 cal/mol, the Kd [2] was 40.5 µM and the previous reported affinity [4] was “nanomolar range”. For the same compound, the “K D (F)” value [5] was “can no longer bind” and the Kd [1] was 31200 ± 3500 nM.

With C[C@@H](N[C@@H](CCCN)C(=O)O)C(=O)O [octopinic acid] the “Enthalpy (ΔH)” value [2] was -9547 cal/mol, the “Entropic contribution (-TΔS)” value [2] was -410 cal/mol and the “Entropy (ΔS)” value [2] was 1.40 cal/mol/deg. For the same compound, the “Free enthalpy (ΔG)” value [2] was -9957 cal/mol, the Kd [2] was 0.038 ± 0.007 µM and the Kd [3] was 1.8 ± 0.3 µM. The Kd [1, 9] was 17 ± 3 nM, the Kd [1, 10] was 17 ± 3 nM and the “Enthalpy (ΔH)” value [7] was -3658 cal/mol. For the same compound, the “Entropic contribution (-TΔS)” value [7] was -3517 cal/mol, the “Entropy (ΔS)” value [7] was 12.0 cal/mol/deg and the “Free enthalpy (ΔG)” value [7] was -7175 cal/mol. The Kd [7] was 4.4 ± 0.4 µM.

In the case of CC(N[C@@H](Cc1cnc[nH]1)C(=O)O)C(=O)O (stereo partly drawn) [histopine], the “Enthalpy (ΔH)” value [2] is reported as -854 cal/mol, the “Entropic contribution (-TΔS)” value [2] is reported as -3810 cal/mol and the “Entropy (ΔS)” value [2] is reported as 13 cal/mol/deg. For the same compound, the “Free enthalpy (ΔG)” value [2] was -4664 cal/mol, the Kd [2] was 326 µM and the Kd [3] was 84.4 ± 6.7 µM. The “K D (F)” value [1, 8] was “micromolar range” and the Kd [1, 10] was 33100 ± 3500 nM.

For NC(N)=NCCC[C@H](NCC(=O)O)C(=O)O [noroctopine], the “Enthalpy (ΔH)” value [2] was -4804 cal/mol, the “Entropic contribution (-TΔS)” value [2] was -4367 cal/mol and the “Entropy (ΔS)” value [2] was 14.8 cal/mol/deg. For the same compound, the “Free enthalpy (ΔG)” value [2] was -9171 cal/mol, the Kd [2] was 0.15 ± 0.01 µM and the Kd [3] was 33.4 ± 2.7 µM. The Kd [1, 10] was 190 ± 50 nM, the “fold better affinity of OccJ compared with arginine or ornithine alone” value ([1]; opine analogue versus its amino acid) was 10 fold and the “Enthalpy (ΔH)” value [7] was 872 cal/mol. The “Entropic contribution (-TΔS)” value [7] was -6390 cal/mol, the “Entropy (ΔS)” value [7] was 21.8 cal/mol/deg and the “Free enthalpy (ΔG)” value [7] was -5518 cal/mol. For the same compound, the Kd [7] was 78 ± 9 µM.

— PMC5740067 (Scientific Reports, 2017)
